Tests used:
[1] = buffer, pH 7.4
[2] = mouse, in vivo, po, 10 mg/kg, 8 h
[3] = mouse, in vivo, po, 10 mg/kg, 24 h
[4] = Drug metabolism in po dosed NMRI mouse plasma assessed as release of 3-methoxyaniline; assay type: ADME, organism-based; conditions: in vivo
[5] = Drug metabolism in mouse plasma assessed as release of 3-methoxyaniline measured after 5 hrs; assay type: ADME, cell-free
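Wherever logD is given: logD at pH 7.4 derived from a chromatographic hydrophobicity index measured by reversed-phase HPLC.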

Structure (SMILES)	logD [1]	other results
COc1cccc(NC(=O)c2nnn(CC3CCN(C(C)=O)CC3)c2N)c1	1.2	
Cc1noc(C)c1-c1noc(-c2nnn(Cc3ccc(CN4CCOCC4)cc3)c2N)n1	2.1	
COc1cccc(NC(=O)c2nnn(Cc3ccc(CN4CCOCC4)cc3)c2N)c1		Drug metabolism [4]: Metabolite_Notdetected; Drug metabolism [5]: Metabolite_Notdetected
COc1cccc(NC(=O)c2nnn(Cc3ccccc3)c2N)c1	2.6	
COc1cccc(NC(=O)c2nnn(Cc3ccc(-n4cccn4)cc3)c2N)c1	2.4	
Nc1c(C(=O)NC23CC4CC(CC(C4)C2)C3)nnn1Cc1ccc(CN2CCOCC2)cc1	2	
Nc1c(-c2nc(C3CCC(O)CC3)no2)nnn1Cc1ccc(CN2CCOCC2)cc1 (stereo not given)	0.9	
COc1cccc(NC(=O)c2nnn(CC3CCNCC3)c2N)c1	0.6	
COc1cccc(NC(=O)c2nnn(Cc3ccncc3)c2N)c1	1.4	
COc1cccc(NC(=O)c2nnn(Cc3ccc(C#N)cc3)c2N)c1	2.3	
COc1cccc(NC(=O)c2nnn(Cc3ccc([S+](C)[O-])cc3)c2N)c1 (stereo not given)	1.3	
COc1cccc(NC(=O)c2nnn(Cc3cc(C)on3)c2N)c1	2	
Nc1c(-c2nc(C3CCOCC3)no2)nnn1Cc1ccc(CN2CCOCC2)cc1	1.3	
COc1cccc(NC(=O)c2nnn(C(C)c3ccc(C(C)(C)C)cc3)c2N)c1 (stereo not given)	3.9	
Nc1c(-c2nc(-c3ccccc3)no2)nnn1Cc1ccc(CN2CCOCC2)cc1	2.6	
COc1cccc(NC(=O)c2nnn(Cc3ccc(C(C)C)cc3)c2N)c1	3.4	AUC [2]: 3200 ng·min/mL; Cmax [3]: 17 ng/mL
COc1cccc(NC(=O)c2nnn(Cc3ccc(OC(F)(F)F)cc3)c2N)c1	3.6	AUC [2]: 2300 ng·min/mL; Cmax [3]: 13 ng/mL
COc1cccc(NC(=O)c2nnn(CC3CCN(C(=O)OC(C)(C)C)CC3)c2N)c1	2.9	

The next lines start with results.

logD [1]	Structure (SMILES)	other results
1	COc1nnccc1-c1noc(-c2nnn(Cc3ccc(CN4CCOCC4)cc3)c2N)n1	
2.2	COc1cc(NC(=O)c2nnn(Cc3ccc(CN4CCOCC4)cc3)c2N)cc(OC)c1	AUC [2]: 370000 ng·min/mL; Cmax [3]: 1600 ng/mL
2	COc1cccc(N(C)C(=O)c2nnn(Cc3ccc(CN4CCOCC4)cc3)c2N)c1	
2	Cc1cccc(NC(=O)c2nnn(Cc3ccc(CN4CCOCC4)cc3)c2N)c1	
2	COC1CCCC(NC(=O)c2nnn(Cc3ccc(CN4CCOCC4)cc3)c2N)C1 (stereo not given)	
1.7	COc1ncccc1-c1noc(-c2nnn(Cc3ccc(CN4CCOCC4)cc3)c2N)n1	AUC [2]: 190000 ng·min/mL; Cmax [3]: 1300 ng/mL
2.1	COc1ccccc1-c1noc(-c2nnn(Cc3ccc(CN4CCOCC4)cc3)c2N)n1	
2	COc1ccnc(NC(=O)c2nnn(Cc3ccc(CN4CCOCC4)cc3)c2N)c1	
2.4	COc1cc(F)cc(NC(=O)c2nnn(Cc3ccc(CN4CCOCC4)cc3)c2N)c1	
2	Nc1c(C(=O)Nc2ccccc2)nnn1Cc1ccc(CN2CCOCC2)cc1	
2.1	COc1cc(NC(=O)c2nnn(Cc3ccc(CN4CCOCC4)cc3)c2N)nc(OC)n1	AUC [2]: 300000 ng·min/mL; Cmax [3]: 1300 ng/mL
1.1	COc1cnccc1-c1noc(-c2nnn(Cc3ccc(CN4CCOCC4)cc3)c2N)n1	
2.1	COc1cc(NC(=O)c2nnn(Cc3ccc(CN4CCOCC4)cc3)c2N)ccc1F	
3.2	COc1cccc(NC(=O)c2nnn(Cc3ccc(C4CC4)cc3)c2N)c1	
2.1	COc1cccc(NC(=O)c2nnn(Cc3ccc(CN4CCOCC4)cc3)c2N)c1F	
1	COc1cccnc1-c1noc(-c2nnn(Cc3ccc(CN4CCOCC4)cc3)c2N)n1	

From ChEMBL document CHEMBL5252542, “Discovery and Optimization of 5-Amino-1,2,3-triazole-4-carboxamide Series against Trypanosoma cruzi” (J Med Chem, 2017)
